System: Amidinohydrolase
Assay: Enzyme characterisation (kinetics and inhibition) with whole cells
Format: biochemical, Pseudomonas aeruginosa (DSM 10581)
Method: Die Enzymcharakterisierung wurde mit ganzen Zellen von Pseudomonas aeruginosa (DSM 10581) durchgeführt. Dabei betrug die optische Dichte der Zellsuspension OD600 = 17. Der Einfluss der Temperatur wurde in 100 mM Phosphatpuffer (pH 7 - 8) bei einer Substratkonzentration von 25 mM L-α-Chlor-δ-guanidinvaleriansäure bestimmt. Dabei zeigte sich, dass bei 37 °C eine um 40% höhere Aktivität als bei 30 °C erhalten wurde. Der Einfluss des pH-Wertes wurde in gleichem Puffer, bei gleicher Substratkonzentration und bei einer Temperatur von 37 °C ermittelt. Gemessen wurde die Aktivität bei pH 7; pH 7,5; pH 8,0, pH 8,5. Dabei wurde festgestellt, dass das pH-Optimum bei pH 8,5 lag. Durch Einsatz von verschiedenen Konzentrationen an L-α-Chlor-δ-guanidinvaleriansäure wurde der KM-Wert und Vmax bei einer Temperatur von 37 °C, in 100 mM Phosphatpuffer (pH 8,5), bestimmt. Der KM-Wert betrug 85,2 mmol / l und Vmax 0,38 mmol / l / min (Fig. 3).
Durch Zugabe von verschiedenen Konzentrationen an L-α-Chlor-δ-aminovaleriansäure (hergestellt aus Ornithin analog zu Beispiel 6) konnte eine Hemmung nachgewiesen werden.

Structure (SMILES) | Hemmung (inhibitor at a concentration of 50 mM (Fig. 4)) | Hemmung der Amidinohydrolase (listed as a property of the enzyme, no concentration given) | Vmax (substrate of the enzyme, 37 °C, 100 mM Phosphatpuffer (pH 8,5), whole cells, OD600 = 17) | Km (substrate of the enzyme, 37 °C, 100 mM Phosphatpuffer (pH 8,5), whole cells, OD600 = 17, read-out: KM-Wert) [mM]
NCCC[C@H](Cl)C(=O)O [L-α-Chlor-δ-aminovaleriansäure] | vollständige Hemmung |  |  | 
N=C(N)NCCC[C@H](Cl)C(=O)O [L-α-Chlor-δ-guanidinvaleriansäure] |  | gehemmt | 0,38 mmol / l / min | 85.2
